Test results taken from article PMC12155096 (International Journal of Molecular Sciences, 2025).
Counter-ions that a name gives are not always drawn. Like-named read-outs stand apart in the source and are kept apart here.

Legend:
human CYP2D6 = human CYP2D6 (Homo sapiens, UniProt P10635); experiment: biochemical; conditions: for AC50: CYP2D6 AC50 (half-maximal activity concentration)
human CYP2C19 [1] = target: T1, human CYP2C19 (Homo sapiens, UniProt P33261); experiment: biochemical; conditions: for AC50: CYP2C19 AC50 (half-maximal activity concentration)
T1 sequence (P33261 whole entry): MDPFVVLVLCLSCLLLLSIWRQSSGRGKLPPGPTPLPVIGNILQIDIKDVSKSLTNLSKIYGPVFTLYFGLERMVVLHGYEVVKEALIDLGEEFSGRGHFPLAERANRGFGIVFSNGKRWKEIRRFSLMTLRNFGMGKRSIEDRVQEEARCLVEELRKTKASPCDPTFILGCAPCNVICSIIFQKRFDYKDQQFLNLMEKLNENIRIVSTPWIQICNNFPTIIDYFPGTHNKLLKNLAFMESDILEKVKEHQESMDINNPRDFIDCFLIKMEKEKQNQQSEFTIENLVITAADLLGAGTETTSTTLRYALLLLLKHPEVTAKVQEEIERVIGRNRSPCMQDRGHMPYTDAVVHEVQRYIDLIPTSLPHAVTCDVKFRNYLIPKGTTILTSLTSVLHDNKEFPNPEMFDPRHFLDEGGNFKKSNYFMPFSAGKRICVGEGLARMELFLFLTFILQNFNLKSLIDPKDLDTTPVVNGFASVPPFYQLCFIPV

human CYP1A2 [2] = target: T2, human CYP1A2 (Homo sapiens, UniProt P05177); experiment: biochemical
T2 sequence (P05177 1-516): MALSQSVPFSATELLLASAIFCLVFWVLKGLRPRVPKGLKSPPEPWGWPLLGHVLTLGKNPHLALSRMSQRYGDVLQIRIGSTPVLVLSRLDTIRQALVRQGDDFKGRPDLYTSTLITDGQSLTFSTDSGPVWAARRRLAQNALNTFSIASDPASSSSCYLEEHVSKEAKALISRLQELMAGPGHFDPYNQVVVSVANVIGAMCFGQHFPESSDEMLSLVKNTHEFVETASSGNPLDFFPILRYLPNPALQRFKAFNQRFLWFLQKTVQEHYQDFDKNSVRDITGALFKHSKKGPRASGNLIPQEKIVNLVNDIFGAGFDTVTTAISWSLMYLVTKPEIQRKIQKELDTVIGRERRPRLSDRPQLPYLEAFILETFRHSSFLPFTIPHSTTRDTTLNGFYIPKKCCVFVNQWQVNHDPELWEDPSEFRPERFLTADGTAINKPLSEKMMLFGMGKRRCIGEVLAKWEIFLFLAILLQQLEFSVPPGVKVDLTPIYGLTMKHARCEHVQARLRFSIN

human CYP2C9 [3] = target: T3, human CYP2C9 (Homo sapiens, UniProt P11712); experiment: biochemical
T3 sequence (P11712 whole entry): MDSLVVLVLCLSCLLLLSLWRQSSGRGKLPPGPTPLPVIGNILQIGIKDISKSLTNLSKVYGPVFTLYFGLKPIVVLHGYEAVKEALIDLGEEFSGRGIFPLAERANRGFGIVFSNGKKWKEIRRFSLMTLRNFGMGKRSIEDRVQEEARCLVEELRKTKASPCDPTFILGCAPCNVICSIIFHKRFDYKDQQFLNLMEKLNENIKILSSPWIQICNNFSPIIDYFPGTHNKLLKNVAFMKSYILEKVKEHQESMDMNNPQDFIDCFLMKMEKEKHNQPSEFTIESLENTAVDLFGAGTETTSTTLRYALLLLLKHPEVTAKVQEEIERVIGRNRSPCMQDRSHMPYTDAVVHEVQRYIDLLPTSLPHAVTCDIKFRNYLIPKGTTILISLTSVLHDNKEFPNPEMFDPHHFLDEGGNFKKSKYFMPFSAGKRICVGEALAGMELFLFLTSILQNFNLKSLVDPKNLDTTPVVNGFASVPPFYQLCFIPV

[4] = target: Photinus pyralis (firefly) luciferase (Photinus pyralis, UniProt P08659); experiment: biochemical; type: biochemical
Photinus pyralis (firefly) luciferase, sequence (P08659 whole entry): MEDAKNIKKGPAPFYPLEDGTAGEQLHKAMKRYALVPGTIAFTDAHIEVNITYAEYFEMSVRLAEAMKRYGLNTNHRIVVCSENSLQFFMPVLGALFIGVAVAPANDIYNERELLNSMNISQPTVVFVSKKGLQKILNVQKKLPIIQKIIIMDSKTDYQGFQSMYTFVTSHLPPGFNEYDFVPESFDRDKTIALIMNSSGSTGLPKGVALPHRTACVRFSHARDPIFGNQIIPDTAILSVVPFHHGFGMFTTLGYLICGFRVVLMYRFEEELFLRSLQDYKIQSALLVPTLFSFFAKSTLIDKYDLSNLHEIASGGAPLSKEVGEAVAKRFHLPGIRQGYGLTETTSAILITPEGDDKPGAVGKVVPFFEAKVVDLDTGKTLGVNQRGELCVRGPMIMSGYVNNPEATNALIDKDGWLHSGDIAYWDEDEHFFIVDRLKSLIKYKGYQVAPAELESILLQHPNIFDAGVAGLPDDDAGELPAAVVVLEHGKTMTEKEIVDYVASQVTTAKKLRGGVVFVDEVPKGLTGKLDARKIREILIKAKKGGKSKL

human CYP1A2 [5] = target: T2, human CYP1A2
human CYP2C9 [6] = target: T3, human CYP2C9
human CYP2C19 [7] = target: T1, human CYP2C19
[8] = CYP2D6 IC50 (half-maximal inhibitory concentration)
[9] = CYP2C19 IC50 (half-maximal inhibitory concentration)
[10] = CYP1A2 IC50 (half-maximal inhibitory concentration)
[11] = CYP2C9 IC50 (half-maximal inhibitory concentration)

human CYP2D6, sequence (P10635 whole entry): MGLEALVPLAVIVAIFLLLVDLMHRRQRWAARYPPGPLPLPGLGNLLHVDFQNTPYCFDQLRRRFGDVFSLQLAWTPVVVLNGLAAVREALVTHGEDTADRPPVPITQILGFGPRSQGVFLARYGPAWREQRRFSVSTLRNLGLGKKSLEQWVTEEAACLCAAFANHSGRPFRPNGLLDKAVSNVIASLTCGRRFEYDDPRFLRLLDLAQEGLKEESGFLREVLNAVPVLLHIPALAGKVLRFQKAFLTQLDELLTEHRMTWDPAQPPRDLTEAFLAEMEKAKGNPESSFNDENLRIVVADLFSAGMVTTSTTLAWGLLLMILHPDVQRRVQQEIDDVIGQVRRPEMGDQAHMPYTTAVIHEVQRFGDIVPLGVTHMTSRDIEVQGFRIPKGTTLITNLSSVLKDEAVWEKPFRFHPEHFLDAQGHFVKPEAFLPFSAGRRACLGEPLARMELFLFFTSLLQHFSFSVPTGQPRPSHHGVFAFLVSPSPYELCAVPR

## Nc1ccc(C(=O)N2CC3CC(CN(Cc4ccccc4)C3)C2)cc1 [Ambasilide]
Human CYP2D6
  IC50: 20.1 µM
Human CYP2C19 [1]
  IC50: 30 µM
Human CYP1A2 [2]
  IC50: 30.9 µM
Human CYP2C9 [3]
  IC50: 22.7 µM
[4]
  Luciferase IC50: Inactive

## CCC1(c2cnc[nH]2)Cc2ccccc2C1 [Atipamezole]
Human CYP2D6
  IC50: 0.87 ± 0.1 µM
Human CYP2C19 [1]
  IC50: 1.42 ± 0.4 µM
Human CYP1A2 [2]
  IC50: 11 ± 2.84 µM
Human CYP2C9 [3]
  IC50: 1.21 ± 0.3 µM
[4]
  Luciferase IC50: Inactive

## CC(CC1c2ccccc2CCc2ccccc21)CN(C)C (stereo not shown) [Butriptyline]
Human CYP2D6; CYP2D6 IC50
  IC50: 0.97 µM
Human CYP1A2 [5]
  CYP1A2 IC50: Inactive
Human CYP2C19 [1]; CYP2C19 IC50
  IC50: 8.39 µM
Human CYP2C9 [6]
  CYP2C9 IC50: Inactive
[4]
  IC50: 8.71 µM

## Nc1ccc2c(c1)CN1C(=O)c3ccccc3C1=N2 [Daniquidone]
Human CYP2D6; [8]
  IC50: 4.39 µM
Human CYP2C19 [1]; [9]
  IC50: 2.8 µM
Human CYP1A2 [2]; [10]
  IC50: 0.67 µM
Human CYP2C9 [3]; [11]
  IC50: 5.05 µM
[4]
  IC50: 0.36 µM

## CN(C)[C@@H](CCOc1cccc2ccccc12)c1ccccc1 [Dapoxetine]
Human CYP2D6
  IC50: 0.98 ± 0.11 µM
Human CYP2C19 [1]
  IC50: 1.21 ± 0.3 µM
Human CYP1A2 [2]
  IC50: 5.87 ± 1.73 µM
Human CYP2C9 [3]
  IC50: 16.8 ± 2.32 µM
[4]
  Luciferase IC50: Inactive

## Cc1cccc(Cc2c[nH]cn2)c1C [Detomidine hydrochloride]
Human CYP2D6; CYP2D6 IC50
  IC50: 2.37 µM
Human CYP2C19 [1]; CYP2C19 IC50
  IC50: 1.96 µM
Human CYP1A2 [2]; CYP1A2 IC50
  IC50: 1.15 µM
Human CYP2C9 [3]; CYP2C9 IC50
  IC50: 0.41 µM
[4]
  Luciferase IC50: Inactive

## COc1ccc([C@@H]2Sc3ccccc3N(CCN(C)C)C(=O)[C@@H]2OC(C)=O)cc1 [Diltiazem]
Human CYP2C19 [7]
  CYP2C19 IC50 (half-maximal inhibitory concentration): Inactive
Human CYP2D6; [8]
  IC50: 19.1 µM
Human CYP1A2 [5]
  CYP1A2 IC50 (half-maximal inhibitory concentration): Inactive
Human CYP2C9 [6]
  CYP2C9 IC50 (half-maximal inhibitory concentration): Inactive
[4]
  Luciferase IC50 (half-maximal inhibitory concentration): Inactive

## [O-][n+]1ccccc1SSc1cccc[n+]1[O-] [Dipyrithione]
Human CYP2D6
  AC50: 1.66 µM
Human CYP2D6; CYP2D6 IC50
  IC50: 1.66 µM
Human CYP2C19 [1]
  AC50: 0.79 µM
Human CYP2C19 [1]; CYP2C19 IC50
  IC50: 0.79 µM
Human CYP1A2 [2]; CYP1A2 AC50 (half-maximal activity concentration)
  AC50: 3.2 µM
Human CYP1A2 [2]; CYP1A2 IC50
  IC50: 3.2 µM
Human CYP2C9 [3]; CYP2C9 AC50 (half-maximal activity concentration)
  AC50: 1.72 µM
Human CYP2C9 [3]; CYP2C9 IC50
  IC50: 1.72 µM
[4]
  IC50: 0.45 µM

## CC1=C(C)C(=O)C(CCCCC#CCCCC#CCO)=C(C)C1=O [Docebenone]
Human CYP2D6; CYP2D6 IC50
  IC50: 25.8 µM
Human CYP2C19 [1]; CYP2C19 IC50
  IC50: 11.4 µM
Human CYP1A2 [2]; CYP1A2 IC50
  IC50: 3.27 µM
Human CYP2C9 [3]; CYP2C9 IC50
  IC50: 5.22 µM
[4]
  Luciferase IC50: Inactive

## CCN(CC)CCOC(=O)C(c1ccccc1)C1CCCCC1 (stereo not shown) [Drofenine hydrochloride]
Human CYP2D6; CYP2D6 IC50
  IC50: 1.19 µM
Human CYP2C19 [1]; CYP2C19 IC50
  IC50: 18.8 µM
Human CYP1A2 [2]; CYP1A2 IC50
  IC50: 5.85 µM
Human CYP2C9 [3]; CYP2C9 IC50
  IC50: 26 µM
[4]
  Luciferase IC50: Inactive

## CN1C[C@H](C(=O)N[C@]2(C)O[C@@]3(O)[C@@H]4CCCN4C(=O)[C@H](Cc4ccccc4)N3C2=O)C=C2c3cccc4[nH]cc(c34)C[C@H]21 [Ergotamine D-tartrate]
Human CYP2D6; [8]
  IC50: 31.3 µM
Human CYP2C19 [1]; [9]
  IC50: 37.4 µM
Human CYP1A2 [2]; [10]
  IC50: 22.6 µM
Human CYP2C9 [3]; [11]
  IC50: 16.5 µM
[4]
  IC50: 42.1 µM

## CC[n+]1c(-c2ccccc2)c2cc(N)ccc2c2ccc(N)cc21 [Ethidium bromide]
Human CYP2D6; CYP2D6 IC50
  IC50: 0.93 µM
Human CYP2C19 [1]; CYP2C19 IC50
  IC50: 13.1 µM
Human CYP1A2 [2]; CYP1A2 IC50
  IC50: 9.62 µM
Human CYP2C9 [3]; CYP2C9 IC50
  IC50: 47.7 µM
[4]
  Luciferase IC50: Inactive

## CCCCCCCCCCCCCCCC[N+](C)(C)CC [Ethylhexadecyldimethylammonium bromide]
Human CYP2D6
  IC50: 0.61 ± 0.04 µM
Human CYP2C19 [1]
  IC50: 89.6 µM
Human CYP1A2 [2]
  IC50: 74.4 ± 9.49 µM
Human CYP2C9 [3]
  IC50: 83.1 ± 5.63 µM
[4]
  Luciferase IC50: Inactive

## CN(C)c1ccc(N=NS(=O)(=O)O)cc1 [Fenaminosulf]
Human CYP2D6
  IC50: 12.2 µM
Human CYP2C19 [1]
  IC50: 1.36 µM
Human CYP1A2 [2]
  IC50: 5.75 µM
Human CYP2C9 [3]
  IC50: 7.38 µM
[4]
  IC50: 44.1 µM

## COP(=S)(OC)Oc1ccc(SC)c(C)c1 [Fenthion]
Human CYP2D6
  IC50: 37.2 µM
Human CYP2C19 [1]; CYP2C19 IC50
  IC50: 0.91 µM
Human CYP1A2 [2]; CYP1A2 IC50
  IC50: 2.53 µM
Human CYP2C9 [3]
  IC50: 6.1 µM
[4]
  IC50: 44.8 µM

## O=c1cc(-c2ccccc2)oc2ccccc12 [Flavone]
Human CYP2D6
  IC50: 62.5 ± 38.1 µM
Human CYP2C19 [1]
  IC50: 23.2 ± 7.47 µM
Human CYP1A2 [2]
  IC50: 0.26 µM
Human CYP2C9 [3]
  IC50: 14.6 µM
[4]
  IC50: 21.6 µM

## CCCCC(CC)CN1CN(CC(CC)CCCC)CC(C)(N)C1 (stereo not shown) [Hexetidine]
Human CYP2C19 [7]
  CYP2C19 IC50: Inactive
Human CYP2D6; CYP2D6 IC50
  IC50: 0.48 µM
Human CYP1A2 [5]
  CYP1A2 IC50: Inactive
Human CYP2C9 [6]
  CYP2C9 IC50: Inactive
[4]
  Luciferase IC50: Inactive

## CN1CCCN(C(c2ccccc2)c2ccc(Cl)cc2)CC1 (stereo not shown) [Homochlorcyclizine]
Human CYP2D6; CYP2D6 IC50
  IC50: 0.38 µM
Human CYP1A2 [5]
  CYP1A2 IC50: Inactive
Human CYP2C19 [1]; CYP2C19 IC50
  IC50: 26.3 µM
Human CYP2C9 [6]
  CYP2C9 IC50: Inactive
[4]
  Luciferase IC50: Inactive

## COCC(=O)O[C@]1(CCN(C)CCCc2nc3ccccc3[nH]2)CCc2cc(F)ccc2[C@@H]1C(C)C [Mibefradil dihydrochloride]
Human CYP2D6; CYP2D6 IC50
  IC50: 0.53 µM
Human CYP1A2 [5]
  CYP1A2 IC50: Inactive
Human CYP2C19 [1]
  IC50: 38.9 µM
Human CYP2C9 [6]
  CYP2C9 IC50: Inactive
[4]
  Luciferase IC50: Inactive

## Cc1ccc(N(CC2=NCCN2)c2cccc(O)c2)cc1 [Phentolamine mesilate]
Human CYP2D6; CYP2D6 IC50
  IC50: 0.65 µM
Human CYP1A2 [5]
  CYP1A2 IC50: Inactive
Human CYP2C19 [1]; CYP2C19 IC50
  IC50: 14.6 µM
Human CYP2C9 [6]
  CYP2C9 IC50: Inactive
[4]
  Luciferase IC50: Inactive

## CN1CCC(=C2c3ccccc3CCc3sccc32)CC1 [Pizotifen]
Human CYP2D6
  AC50: 0.96 µM
Human CYP2D6; CYP2D6 IC50
  IC50: 0.96 µM
Human CYP1A2 [5]
  CYP1A2 IC50: Inactive
Human CYP2C19 [1]
  AC50: 8.71 µM
Human CYP2C19 [1]; CYP2C19 IC50
  IC50: 8.71 µM
Human CYP2C9 [6]
  CYP2C9 IC50: Inactive
[4]
  Luciferase IC50: Inactive

## CCCC(C(=O)OCCN(CC)CC)(c1ccccc1)c1ccccc1 [Proadifen hydrochloride]
Human CYP2D6; CYP2D6 IC50
  IC50: 0.2 µM
Human CYP1A2 [5]
  CYP1A2 IC50: Inactive
Human CYP2C19 [1]; CYP2C19 IC50
  IC50: 19.1 µM
Human CYP2C9 [3]; CYP2C9 IC50
  IC50: 12.1 µM
[4]
  Luciferase IC50: Inactive

## O=C1NCN(c2ccccc2)C12CCN(CC1COc3ccccc3O1)CC2 (stereo not shown) [Spiroxatrine]
Human CYP2D6; CYP2D6 IC50
  IC50: 0.19 µM
Human CYP1A2 [5]
  CYP1A2 IC50: Inactive
Human CYP2C19 [1]; CYP2C19 IC50
  IC50: 8.64 µM
Human CYP2C9 [3]; CYP2C9 IC50
  IC50: 10.8 µM
[4]
  Luciferase IC50: Inactive

## CN1CCC(N(Cc2cccs2)c2ccccc2)CC1 [Thenalidine]
Human CYP2D6
  AC50: 0.53 µM
Human CYP2D6; CYP2D6 IC50
  IC50: 0.53 µM
Human CYP1A2 [5]
  CYP1A2 IC50: Inactive
Human CYP2C19 [1]; CYP2C19 IC50
  IC50: 36.8 µM
Human CYP2C9 [6]
  CYP2C9 IC50: Inactive
[4]
  Luciferase IC50: Inactive
